Among the data in US20160297833A1, “THIENOPYRIMIDINES AS MKNK1 AND MKNK2 INHIBITORS” (BAYER PHARMA AKTIENGESELLSCHAFT, priority 2013, published 2016) are IC50 values, retold here.

The target of the assay is T1, human full-length MKNK1 (Homo sapiens, UniProt Q9BUB5, T385D).
T1 construct: GST (N); purchased Carna Biosciences 02-145; host or cells: insect cells (baculovirus expression system)
Nature of the assay: MKNK1 kinase high ATP assay (TR-FRET). The class given is biochemical. As to conditions: Table 1; MKNK1 kinase high ATP assay, 2 mM ATP; read-out: MKNK1 IC50. In a few lines:
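Full-length human MKNK1 (T385D) preincubated 15 min at 22 °C with compound in HEPES pH 7.5/MgCl2/DTT buffer; reaction with 2 mM ATP (final) and 0.06 μM biotinylated peptide (final), 30 min at 22 °C.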
A general note: In TR-FRET formats the signal depends on donor and acceptor labels being close together.

T1 sequence (Q9BUB5 1-424 isoform Q9BUB5-2 T344D): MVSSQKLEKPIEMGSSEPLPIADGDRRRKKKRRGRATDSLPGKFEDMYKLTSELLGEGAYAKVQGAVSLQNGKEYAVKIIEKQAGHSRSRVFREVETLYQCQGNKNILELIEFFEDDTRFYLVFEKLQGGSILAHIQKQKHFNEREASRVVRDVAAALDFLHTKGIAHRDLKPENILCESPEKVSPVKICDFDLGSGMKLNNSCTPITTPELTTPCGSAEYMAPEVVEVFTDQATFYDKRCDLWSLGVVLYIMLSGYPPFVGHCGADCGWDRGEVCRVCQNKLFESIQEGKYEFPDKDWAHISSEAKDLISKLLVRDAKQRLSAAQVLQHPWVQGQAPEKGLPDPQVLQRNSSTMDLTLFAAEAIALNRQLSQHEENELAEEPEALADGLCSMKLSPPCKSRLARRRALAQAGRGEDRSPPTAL

As usually defined, the IC50 is the concentration that gives 50% inhibition. Take `CC(C)Oc1cc2[nH]ncc2cc1Nc1ncnc2sc3c(c12)CC[C@H](C(=O)N(CCO)CCO)C3` [Example 91, (7S)—N,N-bis(2-Hydroxyethyl)-4-{[6-(propan-2-yloxy)-1H-indazol-5-yl]amino}-5,6,7,8-tetrahydro[1]benzothieno[2,3-d]pyrimidine-7-carboxamide]: the IC50 is 0.1 nM.
Take `CC(C)Oc1cc2[nH]ncc2cc1Nc1ncnc2sc3c(c12)CC[C@H](C(=O)N1C[C@H](O)[C@@H](O)C1)C3` [Example 92, [(3S,4S)-3,4-Dihydroxypyrrolidin-1-yl][(7S)-4-{[6-(propan-2-yloxy)-1H-indazol-5-yl]amino}-5,6,7,8-tetrahydro[1]benzothieno[2,3-d]pyrimidin-7-yl]methanone]: the concentration for half-maximal inhibition (IC50) came out at 0.2 nM.
For the compound `CC(C)Oc1cc2[nH]ncc2cc1Nc1ncnc2sc3c(c12)CC[C@H](C(=O)N1C[C@@H](O)[C@H](O)C1)C3` [Example 93, [(3R,4R)-3,4-Dihydroxypyrrolidin-1-yl][(7S)-4-{[6-(propan-2-yloxy)-1H-indazol-5-yl]amino}-5,6,7,8-tetrahydro[1]benzothieno[2,3-d]pyrimidin-7-yl]methanone], the IC50 worked out at 0.1 nM.
With `CCCOc1cc2[nH]ncc2cc1Nc1ncnc2sc3c(c12)CC[C@H](C(=O)N(C)C)C3` [Example 94, (7S)—N,N-Dimethyl-4-[(6-propoxy-1H-indazol-5-yl)amino]-5,6,7,8-tetrahydro[1]benzothieno[2,3-d]pyrimidine-7-carboxamide], the IC50 was found to be 4.8 nM.
For `CCCOc1cc2[nH]ncc2cc1Nc1ncnc2sc3c(c12)CC[C@H](C(=O)N1CC(C)(O)C1)C3` [Example 95, (3-Hydroxy-3-methylazetidin-1-yl){(7S)-4-[(6-propoxy-1H-indazol-5-yl)amino]-5,6,7,8-tetrahydro[1]benzothieno[2,3-d]pyrimidin-7-yl}methanone] the value was 2.3 nM; for `CN(C)C(=O)[C@H]1CCc2c(sc3ncnc(Nc4cc5cn[nH]c5cc4O)c23)C1` [Example 96, (7S)-4-[(6-Hydroxy-1H-indazol-5-yl)amino]-N,N-dimethyl-5,6,7,8-tetrahydro[1]benzothieno[2,3-d]pyrimidine-7-carboxamide], 0.7 nM.
In the case of `CCCN(C)C(=O)[C@H]1CCc2c(sc3ncnc(Nc4cc5cn[nH]c5cc4OC)c23)C1` [Example 97, (7S)-4-[(6-methoxy-1H-indazol-5-yl)amino]-N-methyl-N-propyl-5,6,7,8-tetrahydro[1]benzothieno[2,3-d]pyrimidine-7-carboxamide] it was 0.3 nM; in that of `CN(C)C(=O)[C@H]1CCc2c(sc3ncnc(Nc4cc5cn[nH]c5cc4N(C)C)c23)C1` [Example 98, (7S)-4-{[6-(Dimethylamino)-1H-indazol-5-yl]amino}-N,N-dimethyl-5,6,7,8-tetrahydro[1]benzothieno[2,3-d]pyrimidine-7-carboxamide], 0.2 nM.
For `CC(C)N(C)c1cc2[nH]ncc2cc1Nc1ncnc2sc3c(c12)CC[C@H](C(=O)N(C)C)C3` [Example 99, (7S)—N,N-Dimethyl-4-({6-[methyl(propan-2-yl)amino]-1H-indazol-5-yl}amino)-5,6,7,8-tetrahydro[1]benzothieno[2,3-d]pyrimidine-7-carboxamide] the value was 0.3 nM; for `CN(C)C(=O)[C@H]1CCc2c(sc3ncnc(Nc4cc5cn[nH]c5cc4NCC(C)(C)O)c23)C1` [Example 100, (7S)-4-({6-[(2-Hydroxy-2-methylpropyl)amino]-1H-indazol-5-yl}amino)-N,N-dimethyl-5,6,7,8-tetrahydro[1]benzothieno[2,3-d]pyrimidine-7-carboxamide], 882 nM.
As to `CN(C)C(=O)[C@H]1CCc2c(sc3ncnc(Nc4cc5cn[nH]c5cc4N(C)CC(C)(C)O)c23)C1` [Example 101, (7S)-4-({6-[(2-Hydroxy-2-methylpropyl)(methyl)amino]-1H-indazol-5-yl}amino)-N,N-dimethyl-5,6,7,8-tetrahydro[1]benzothieno[2,3-d]pyrimidine-7-carboxamide], the half-inhibitory concentration (IC50) was 9.1 nM.
For `CN(C)C(=O)[C@H]1CCc2c(sc3ncnc(Nc4cc5cn[nH]c5cc4N4CCC4)c23)C1` [Example 102, (7S)-4-{[6-(Azetidin-1-yl)-1H-indazol-5-yl]amino}-N,N-dimethyl-5,6,7,8-tetrahydro[1]benzothieno[2,3-d]pyrimidine-7-carboxamide] the value was 24.5 nM; for `CN(C)C(=O)[C@H]1CCc2c(sc3ncnc(Nc4cc5cn[nH]c5cc4N4CCCC4)c23)C1` [Example 103, (7S)—N,N-Dimethyl-4-{[6-(pyrrolidin-1-yl)-1H-indazol-5-yl]amino}-5,6,7,8-tetrahydro[1]benzothieno[2,3-d]pyrimidine-7-carboxamide], 1.3 nM; for `CN(C)C(=O)[C@H]1CCc2c(sc3ncnc(Nc4cc5cn[nH]c5cc4N4CCC(N(C)C)CC4)c23)C1` [Example 104, (7S)-4-({6-[4-(Dimethylamino)piperidin-1-yl]-1H-indazol-5-yl}amino)-N,N-dimethyl-5,6,7,8-tetrahydro[1]benzothieno[2,3-d]pyrimidine-7-carboxamide], 29.5 nM.
Regarding `CCCCN(C)C(=O)[C@H]1CCc2c(sc3ncnc(Nc4cc5cn[nH]c5cc4N4CCC(N(C)C)CC4)c23)C1` [Example 105, (7S)—N-Butyl-4-({6-[4-(dimethylamino)piperidin-1-yl]-1H-indazol-5-yl}amino)-N-methyl-5,6,7,8-tetrahydro[1]benzothieno[2,3-d]pyrimidine-7-carboxamide], the IC50 turned out to be 14.1 nM.
With `CSc1cc2[nH]ncc2cc1Nc1ncnc2sc3c(c12)CC[C@H](C(=O)N(C)C)C3` [Example 106, (7S)—N,N-Dimethyl-4-{[6-(methylsulfanyl)-1H-indazol-5-yl]amino}-5,6,7,8-tetrahydro[1]benzothieno[2,3-d]pyrimidine-7-carboxamide], the IC50 is 4.6 nM.
With `CN(C)C(=O)[C@H]1CCc2c(sc3ncnc(Nc4cc5cn[nH]c5cc4OCCN=[N+]=[N-])c23)C1` [Example 107, (7S)-4-{[6-(2-Azidoethoxy)-1H-indazol-5-yl]amino}-N,N-dimethyl-5,6,7,8-tetrahydro[1]benzothieno[2,3-d]pyrimidine-7-carboxamide], the IC50 stood at 10 nM.
In the case of `CN(C)C(=O)[C@H]1CCc2c(sc3ncnc(Nc4cc5cn[nH]c5cc4OCCN)c23)C1` [Example 108, (7S)-4-{[6-(2-Aminoethoxy)-1H-indazol-5-yl]amino}-N,N-dimethyl-5,6,7,8-tetrahydro[1]benzothieno[2,3-d]pyrimidine-7-carboxamide] it was 0.6 nM.
For `CN(C)CCOc1cc2[nH]ncc2cc1Nc1ncnc2sc3c(c12)CC[C@H](C(=O)N(C)C)C3` [Example 109, (7S)-4-({6-[2-(Dimethylamino)ethoxy]-1H-indazol-5-yl}amino)-N,N-dimethyl-5,6,7,8-tetrahydro[1]benzothieno[2,3-d]pyrimidine-7-carboxamide] the value was 16.5 nM; for `CN(C)C(=O)[C@H]1CCc2c(sc3ncnc(Nc4cc5cn[nH]c5cc4OCCCN=[N+]=[N-])c23)C1` [Example 110, (7S)-4-{[6-(3-Azidopropoxy)-1H-indazol-5-yl]amino}-N,N-dimethyl-5,6,7,8-tetrahydro[1]benzothieno[2,3-d]pyrimidine-7-carboxamide], 2.3 nM.
For `CN(C)C(=O)[C@H]1CCc2c(sc3ncnc(Nc4cc5cn[nH]c5cc4OCCCN)c23)C1` [Example 111, (7S)-4-{[6-(3-Aminopropoxy)-1H-indazol-5-yl]amino}-N,N-dimethyl-5,6,7,8-tetrahydro[1]benzothieno[2,3-d]pyrimidine-7-carboxamide] the value was 1.4 nM.
Regarding `CN(C)C(=O)[C@H]1CCc2c(sc3ncnc(Nc4cc5cn[nH]c5cc4OCCN4CCCC4)c23)C1` [Example 112, (7S)—N,N-Dimethyl-4-({6-[2-(pyrrolidin-1-yl)ethoxy]-1H-indazol-5-yl}amino)-5,6,7,8-tetrahydro[1]benzothieno[2,3-d]pyrimidine-7-carboxamide], the IC50 was 76.3 nM.
`CN(C)C(=O)[C@H]1CCc2c(sc3ncnc(Nc4cc5cn[nH]c5cc4OCCN4CCCCC4)c23)C1` [Example 113, (7S)—N,N-Dimethyl-4-({6-[2-(piperidin-1-yl)ethoxy]-1H-indazol-5-yl}amino)-5,6,7,8-tetrahydro[1]benzothieno[2,3-d]pyrimidine-7-carboxamide]: the IC50 was 634 nM.
For `C[C@@H]1COCCN1C(=O)[C@H]1CCc2c(sc3ncnc(Nc4cc5cn[nH]c5cc4OCCN(C)C)c23)C1` [Example 114, [(7S)-4-({6-[2-(Dimethylamino)ethoxy]-1H-indazol-5-yl}amino)-5,6,7,8-tetrahydro[1]benzothieno[2,3-d]pyrimidin-7-yl][(3R)-3-methylmorpholin-4-yl]methanone] the value was 34.2 nM; for `C[C@@H]1COCCN1C(=O)[C@H]1CCc2c(sc3ncnc(Nc4cc5cn[nH]c5cc4OCCN4CCCC4)c23)C1` [Example 115, [(3R)-3-Methylmorpholin-4-yl][(7S)-4-({6-[2-(pyrrolidin-1-yl)ethoxy]-1H-indazol-5-yl}amino)-5,6,7,8-tetrahydro[1]benzothieno[2,3-d]pyrimidin-7-yl]methanone], 71.5 nM.
For `C[C@@H]1COCCN1C(=O)[C@H]1CCc2c(sc3ncnc(Nc4cc5cn[nH]c5cc4OCCN4CCCCC4)c23)C1` [Example 116, [(3R)-3-Methylmorpholin-4-yl][(7S)-4-({6-[2-(piperidin-1-yl)ethoxy]-1H-indazol-5-yl}amino)-5,6,7,8-tetrahydro[1]benzothieno[2,3-d]pyrimidin-7-yl]methanone] the value was 1190 nM.
In the case of `C[C@H]1COCCN1C(=O)[C@H]1CCc2c(sc3ncnc(Nc4cc5cn[nH]c5cc4OCCN(C)C)c23)C1` [Example 117, [(7S)-4-({6-[2-(Dimethylamino)ethoxy]-1H-indazol-5-yl}amino)-5,6,7,8-tetrahydro[1]benzothieno[2,3-d]pyrimidin-7-yl][(3S)-3-methylmorpholin-4-yl]methanone], the half-maximal inhibitory concentration (IC50) came to 20 nM.
